Where “and” joins values, the source holds several entries; their conditions need not be identical. Equal entries are not always repeated.
Columns and labels:
[1] = parameters: method as in PMID 1289357, PMID 14695832; details: cited from earlier work
[2] = system: L. infantum infection; parameters: method as in earlier work; details: against L. infantum infection; ref 32 (Reimao et al.); cited from earlier work
[3] = system: wild-type L. donovani AG83 amastigotes in spleen; assay: Culture microtitration assay (CMA) in infected mice; type: in vivo, BALB/c mice; details: for Spleen: 7 days post-treatment, n = 5; for Suppression (%) of L. donovani amastigote burden in spleen: CMA method, 2 mg/kg
Protocol: The infected control group was injected with 0.2 mL of sterile water during the entire dosing period. Seven days post-treatment, the animals were sacrificed, and their spleens were aseptically removed and weighed for determination of amastigote burden by microtitration assay as described elsewhere. Wells were examined for viable and motile promastigotes. The final titer was the last dilution for which the well contained at least one parasite. […] (5) .

[4] = system: peritoneal macrophages; parameters: method as in earlier work; details: ref 32 (Reimao et al.); cited from earlier work
[5] = system: intracellular L.donovani amastigotes, AG83-R, SSG, in macrophages; assay: microbe, parasite or virus in culture; type: cell-based
Protocol: (§1) SSG and PMM resistant L. donovani amastigotes were generated by using the methods described previously. […] The cultures were stabilized for three subcultures. Then, the drug concentration was increased until the cell population decreased approximately to 20% for each batch. Finally, when 90% cell population of the initial count was reduced, the phenotype generated was plated on medium 199 agar plates containing the same drug concentration, and a single colony was picked for culture in medium 199 liquid media at the same drug concentration. The cultured promastigotes are converted into amastigotes as described above. Drug pressure was withdrawn, and stability was checked at one, two, and four months. SSG and PMM resistant phenotype clones were labeled as AG83-R,SSG and AG83-R, PMM, respectively.
(§2) The intracellular antileishmanial activity was evaluated based on the reduction in the amastigote numbers in the infected macrophages after the treatment. The method was adapted from our previous work. Briefly, 4x10^6 amastigotes in 500 μL of RPMI-1640 suspension were added to each well containing macrophages with the macrophage: parasite ratio of 1:10. The plates were incubated for 4 h at 37°C in 5% CO2. After the parasite internalization period, cells were washed at least twice with fresh media to remove non-phagocytosed parasites. Then, the drug specimen suspended in 1 mL RPMI-1640 was added, and the samples were incubated for 72 h at 37°C in 5% CO2. The medium was aspirated, the coverslips were removed, and then fixed with methanol and air-dried. After staining with Giemsa, 100 cells on the glass discs were counted. Three independent experiments in quadruplicate for each concentration were performed.
(§3) Microscopic examinations were performed in duplicates with various concentrations of pure drugs or buparvaquone-loaded nanoparticles and also for control wells. The amastigotes cells were counted for all cases using a hemocytometer. The mean of the control wells was considered as 100% survival. The counts in the treated wells at various concentrations were converted into percentages. Giemsa-stained slides of the macrophages infected with amastigotes were observed under a light microscope. Then the numbers of amastigotes and infected macrophages per 100 cells were counted for each slide. The percentage (%) of inhibition was calculated by using the equation %ofinhibition=C−T/C×100, (2) where C is the number of amastigotes/infected macrophages per 100 cells in the control well and T is the number of amastigotes/infected macrophages per 100 cells in the drug-treated well.
(§4) Origin version 6.1 software was used to calculate IC50 and CC50 values by plotting a graph of the percentage of inhibition at various concentrations of all the observations.

[6] = system: intracellular L.donovani amastigotes, AG83-R, PMM, in macrophages; assay: microbe, parasite or virus in culture; type: cell-based
Protocol: as §1, §2, §3, §4

[7] = system: axenic L.donovani amastigotes, wild-type AG83; assay: Antileishmanial activity against axenic amastigotes, wild-type AG83; type: cell-based
Protocol: L. donovani AG83 (MHOM/IN/83/AG83) and GE1 (MHOM/IN/80/GE1F8R) promastigotes were routinely grown in medium 199 supplemented with 10% heat-inactivated fetal bovine serum, 2 mM L-glutamine, 20 mM HEPES, 100 U/mL penicillin, and 100 μg/mL streptomycin at 25°C. L. donovani amastigote forms were grown and maintained as described previously. Axenic amastigote forms were derived from promastigote forms by culturing them in MMA/20 (medium for axenic amastigote) at pH 5.5 [22]. Axenically grown amastigotes were maintained by sub-culture of 10^5 parasites/ml repeated every fifth day under experimental conditions of 37°C temperature and 5% CO2 environment.
The antileishmanial activity of the drug specimens (BPQ+NP, BPQ, SSG, AmB, PMM, and MF) against the axenic amastigotes were evaluated based on the IC50 value, which is the concentration of the specimen required to kill 50% of the parasites. The parasites were first seeded into 96-well plates at a density of 1x10^5 amastigotes/well in 200 μL medium. Then, 10 μL of the drug candidates at various concentrations were added and the final volume was adjusted to […] medium. The number of amastigotes in the wells treated with each specimen were compared to those in the untreated control wells.
as §3, §4

[8] = 2 doses of 2 mg/kg i.p. at 5 days interval
[9] = 4 doses of 2 mg/kg i.p. at 5 days interval

## CC(C)(C)[C@H]1CC[C@H](CC2=C(O)C(=O)c3ccccc3C2=O)CC1 [BPQ, Buparvaquone]
[1]
  Aqueous solubility: < 0.03 µg/mL
[2]
  IC50: 1.5 µM
[3]; [8]
  Spleen: 140 ± 22 mg
  Suppression (%) of L. donovani amastigote burden in spleen: 52% and 52 ± 3 %
[3]; [9]
  Spleen: 131 ± 18 mg
  Suppression (%) of L. donovani amastigote burden in spleen: 64% and 64 ± 4 %
[3]; spleen, 2 mg/kg i.p., 2 or 4 doses at 5 days interval
  Reduction of parasite burden (CMA): 50%
[4]
  CC50: > 230 µM
[5]; AG83-R, SSG
  Fold larger cellular IC50 of pure BPQ than BPQ+NP: 5 fold
[5]; CC50/IC50, intracellular
  Selectivity index (SI), AG83-R, SSG: 60 ± 10
[5]; Leishmania donovani, Macrophage, 72 h, read-out: Cellular IC50, AG83-R, SSG
  IC50: 5.4 ± 0.4 µM
[6]; AG83-R, PMM
  Fold larger cellular IC50 of pure BPQ than BPQ+NP: 5 fold
[6]; CC50/IC50, intracellular
  Selectivity index (SI), AG83-R, PMM: 60 ± 10
[6]; Leishmania donovani, Macrophage, 72 h, read-out: Cellular IC50, AG83-R, PMM
  IC50: 4.8 ± 0.5 µM
[7]; Leishmania donovani, axenic amastigotes, mean ± σ, n = 4
  IC50: 3.4 ± 0.3 µM
[7]; wild-type AG83
  Fold higher axenic IC50 of pure BPQ than BPQ+NP: 3 fold

— publication PMC8274846, “Biogenic nanoporous silicon carrier improves the efficacy of buparvaquone against resistant visceral leishmaniasis” (PLoS Neglected Tropical Diseases, 2021)
